Data published in patent US20060247286A1, “Oxazolidinone antibiotics and derivatives thereof” (priority 2003, published 2006).
≈ marks a conversion by molar mass, not a printed value.

Tests used:
Type in all cases: cell-based
[1] = test system: Streptococcus pneumoniae PRQR (penicillin resistant, quinolone resistant); experiment: MIC, agar dilution method, Mueller-Hinton agar with 5% defibrinated horse blood; details: 35° C., 5% CO2, 24 hours
Procedure: (§1) The following in vitro results were obtained based on an agar dilution method except for C. pneumoniae. The activity is presented as the minimum inhibitory concentration (MIC).
(§2) Streptococci and enterococci were tested on Mueller-Hinton agar supplemented with 5% defibrinated horse blood, using an approximate inoculum of 1×10^4 cfu/spot an incubation temperature of 35° C. in an atmosphere of 5% CO2 for 24 hours. The MIC was defined as the lowest concentration at which no visible bacterial growth was observed.

[2] = test system: Streptococcus pyogenes IID692; experiment: as above; details: 35° C., 5% CO2, 24 hours
Procedure: as §1, §2

[3] = test system: Streptococcus pneumoniae IID553; experiment: as above; details: 35° C., 5% CO2, 24 hours
Procedure: as §1, §2

[4] = test system: Enterococcus faecium VRQR (vancomycin resistant, quinolone resistant); experiment: as above; details: 35° C., 5% CO2, 24 hours
Procedure: as §1, §2

[5] = test system: Staphylococcus aureus Smith; experiment: MIC, agar dilution method, Mueller-Hinton agar; details: 1×10^4 cfu/spot, 35° C., 24 hours
Procedure: as §1
(§3) S. aureus and M. catarrhalis were tested on Mueller-Hinton agar, using an approximate inoculum of 1×10^4 cfu/spot an incubation temperature of 35° C. for 24 hours. The MIC was defined as the lowest concentration at which no visible bacterial growth was observed.

[6] = test system: Moraxella catarrhalis ATCC25238; experiment: MIC, agar dilution method, Mueller-Hinton agar; details: 1×10^4 cfu/spot, 35° C., 24 hours
Procedure: as §1, §3

[7] = test system: Staphylococcus aureus CR (chloramphenicol resistant); experiment: MIC, agar dilution method, Mueller-Hinton agar; details: 1×10^4 cfu/spot, 35° C., 24 hours
Procedure: as §1, §3

[8] = test system: Staphylococcus aureus MR (methicillin resistant); experiment: MIC, agar dilution method, Mueller-Hinton agar; details: 1×10^4 cfu/spot, 35° C., 24 hours
Procedure: as §1, §3

Row | MIC [1] | MIC [2] | MIC [3] | MIC [4] | MIC [5] | MIC [6] | MIC [7] | MIC [8] | SMILES
1 | 0.25 µg/mL (≈ 0.737 µM) | 0.5 µg/mL (≈ 1.47 µM) | 0.5 µg/mL (≈ 1.47 µM) | 0.25 µg/mL (≈ 0.737 µM) | 0.25 µg/mL (≈ 0.737 µM) | 0.5 µg/mL (≈ 1.47 µM) | 2 µg/mL (≈ 5.89 µM) | 0.25 µg/mL (≈ 0.737 µM) | CC(=O)NC[C@H]1CN(c2ccc([C@@]3(C#N)[C@@H]4CCC[C@@H]43)cc2)C(=O)O1 [Example 1, N-[5(S)-3-[4-[(1α,5α,6β)-(6-Cyanobicyclo[3.1.0]hexan-6-yl)]phenyl]-2-oxooxazolidin-5-ylmethyl]acetamide]
2 | 0.5 µg/mL (≈ 1.25 µM) | 0.5 µg/mL (≈ 1.25 µM) | 0.5 µg/mL (≈ 1.25 µM) | 0.5 µg/mL (≈ 1.25 µM) | 1 µg/mL (≈ 2.51 µM) | 2 µg/mL (≈ 5.02 µM) | 2 µg/mL (≈ 5.02 µM) | 1 µg/mL (≈ 2.51 µM) | CC(=O)NC[C@H]1CN(c2ccc([C@@]3(C#N)[C@@H]4CN(C(=O)CO)C[C@@H]43)cc2)C(=O)O1 [Example 8, N-[5(S)-3-[4-[(1α,5α,6β)-(6-Cyano-3-hydroxyacetyl-3-azabicyclo[3.1.0]hexan-6-yl)]phenyl]-2-oxooxazolidin-5-ylmethyl]acetamide]
3 | 0.5 µg/mL (≈ 1.19 µM) | 0.5 µg/mL (≈ 1.19 µM) | 0.5 µg/mL (≈ 1.19 µM) | 0.5 µg/mL (≈ 1.19 µM) | 0.5 µg/mL (≈ 1.19 µM) | 2 µg/mL (≈ 4.78 µM) | 1 µg/mL (≈ 2.39 µM) | 0.5 µg/mL (≈ 1.19 µM) | CC(=O)NC[C@H]1CN(c2ccc([C@@]3(C#N)[C@@H]4CN(S(C)(=O)=O)C[C@@H]43)cc2)C(=O)O1 [Example 9, N-[5(S)-3-[4-[(1α,5α,6β)-(6-Cyano-3-methanesulfonyl-3-azabicyclo[3.1.0]hexan-6-yl)]phenyl]-2-oxooxazolidin-5-ylmethyl]acetamide]
4 | 0.25 µg/mL (≈ 0.684 µM) | 0.125 µg/mL (≈ 0.342 µM) | 0.25 µg/mL (≈ 0.684 µM) | 0.25 µg/mL (≈ 0.684 µM) | 0.25 µg/mL (≈ 0.684 µM) | 1 µg/mL (≈ 2.74 µM) | 1 µg/mL (≈ 2.74 µM) | 0.5 µg/mL (≈ 1.37 µM) | CC(=O)NC[C@H]1CN(c2ccc([C@@]3(C#N)[C@@H]4CN(C#N)C[C@@H]43)cc2)C(=O)O1 [Example 11, N-[5(S)-3-[4-[(1α,5α,6β)-(3,6-Dicyano-3-azabicyclo[3.1.0]hexan-6-yl)]phenyl]-2-oxooxazolidin-5-ylmethyl]acetamide]
5 | 1 µg/mL (≈ 2.96 µM) | 1 µg/mL (≈ 2.96 µM) | 2 µg/mL (≈ 5.93 µM) | 2 µg/mL (≈ 5.93 µM) | 1 µg/mL (≈ 2.96 µM) | 4 µg/mL (≈ 11.9 µM) | 16 µg/mL (≈ 47.4 µM) | 1 µg/mL (≈ 2.96 µM) | CC(=O)NC[C@H]1CN(c2ccc(N3CCOCC3)c(F)c2)C(=O)O1 [Linezolid, reference compound]
